Entries after “also recorded” stand apart in the source; their conditions may differ.
How the values were obtained:
[1] = tested on: human macrophages; test: sIL-15Rα secretion by human macrophages cultured with IFX, etanercept, GM-6001; type: cell-based; conditions: for sIL-15Rα secretion: human macrophages, 8 h; for effect on sIL-15Rα secretion by macrophages: versus macrophages cultured without the agent
Method: (§1) The quantification of sIL-15Rα and IL-15 was determined as previously described (Mortier et al. J Immunol 2004; 173:1681-8). Sandwich RIAs were set up in which the goat anti-human IL-15Rα Ab AF247 or the mouse anti-human IL-15 Mab247 (R&D) was used as capture Ab and radio-iodinated anti-human IL-15Rα Ab M161 (GenMab; Copenhagen, Denmark) or radio-iodinated mouse anti human IL-15 BE-29 (Diaclone: Besançon, France) was used as tracer. A purified recombinant sIL-15Rα protein (Bernard et al. J Biol Chem 2004; 279:24313-22) and recombinant IL-15 (Peprotech) were used as standards. Capture Abs were coated (5 μg/mL; 50 μL/well) to high-adsorption Nunc maxisorp plates (Fisher Bioblock Scientific, Illkirch, France). Wells were saturated with PBS-BSA 0.5% for 15 min and samples (50 μL/well) were incubated for 1 h at 4° C. The M161 or BE-29 mAbs were iodinated using the iodogen method and then added (1 nM, 50 μL/well) for 1 h at 4° C. Supernatants of each well were collected and the wells washed twice with PBS. The radioactivity associated to the wells (bound fraction) and contained in the supernatants and washes (unbound fraction) were determined.
Human monocytes were isolated from blood samples of healthy donors. PBMC were collected after Ficoll-Hypaque density centrifugation, resuspended at 7×10^6 cells/mL and allowed to adhere in culture flasks (RPMI 1640 supplemented with L-glutamine, streptomycin, penicillin, 10% FCS) for 1 h 30 at 37° C. Nonadherent cells were removed and adherent cells were washed five times with PBS. Monocytes were further differentiated for 5 days in the same medium supplemented with GM-CSF (100 ng/mL). […] After incubation, supernatants were obtained by centrifugation.

[2] = tested on: soluble and cell-surface TNFα; conditions: cited from earlier work
[3] = tested on: sIL-15Rα; test: Serum sIL-15Rα of CD patients before/after IFX (RIA); type: in vivo, human; conditions: responder patients
Method: as §1

[4] = tested on: patients with active CD; test: Clinical response and CDAI in active CD patients treated with IFX; type: in vivo, human
Method: Clinical response for patients treated for perineal disease was assessed by the disappearance of draining fistulas. Blood samples were taken before each infusion and were centrifuged and stored at −80° C. Blood samples were also collected in 37 healthy volunteers. Forty patients with active CD were included in the study (12 males, 28 females, mean age 37.8 years). According to the Montreal classification, the disease was predominantly located into the colon (L2) or the ileocolon (L3) in 62.5 and 32.5% respectively and the disease was mostly non-stricturing and non-penetrating (B1). […] Six patients were treated by a combination of steroids and immunosuppressors, 3 patients received only steroids, 30 only immunosuppressors. Treatments were not modified except steroids which were always stopped between the first and the third infusion. There were no clinical and demographic differences between patients who experienced a response or not to IFX.

[5] = tested on: IL-15; test: Serum IL-15 of CD patients before/after IFX (RIA); type: in vivo, human
Method: as §1
The upper normal value of IL-15 (6.1 pM) was calculated by the mean+2 SD of the values measured in healthy volunteers.

[6] = tested on: TNFα; test: Serum TNFα of CD patients before/after IFX (WEHI 164 XTT bio-assay); type: in vivo, human
Method: TNFα concentrations were measured in the serum of 43 patients (33 responder patients, 10 non-responders). Quantification TNFα was performed by the XTT method using the murine cell line WEHI 164 (ATCC N^o CRL1751) (Espevik et al. J Immunol Methods 1986; 95:99-105). Cells were seeded in 96-well plates (3×10^4 cells/50 μL/well) and grown at 37° C. in RPMI 1640 supplemented with […] of glutamine, 10% heat-inactivated FCS, LiCl and actinomycin D. Sera from CD patients and healthy volunteers were serially diluted, added to wells and a purified recombinant TNFα (R&D) was used as standard. After 20 h of culture, 50 μL/well of XTT and electron coupling reagent was added and cell survival was determined by measuring the optical density at 450 nm. The sensitivity of the assay was 0.10 pg/mL. The TNFα upper normal limit was calculated by the mean+2 SD of the values obtained in the healthy volunteers.

[7] = tested on: CD; conditions: in vivo; cited from earlier work
[8] = experiment with GM-6001 0.2 nM, IFX 0.01 μg/mL, control 1.4±0.9 pM
[9] = according to TNF and CRP levels and CDAI, 40 patients, 5 treated twice (45 courses)
[10] = 0.01 μg/mL IFX or etanercept, cells without IFX 2.0±0.6 pM

Sequence of soluble and cell-surface TNFα (P01375 77-233 limits assumed): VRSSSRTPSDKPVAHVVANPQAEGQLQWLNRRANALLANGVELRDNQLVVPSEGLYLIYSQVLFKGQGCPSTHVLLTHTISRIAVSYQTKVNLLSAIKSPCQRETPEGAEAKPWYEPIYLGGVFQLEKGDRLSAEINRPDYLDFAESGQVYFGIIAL

Molecule | inducing effect of IFX on sIL-15Rα secretion ([1]; GM-6001 added with IFX) | basal sIL-15Rα secretion ([1]; GM-6001 alone versus control cells) | sIL-15Rα secretion [1, 8] [pM] | binding to soluble and cell-surface TNFα [2] | increase of the proportion of patients with detectable sIL-15Rα after IFX [3] [%] | patients classified as non-responders to IFX [4, 9] [patients] | patients classified as responders to IFX [4, 9] [patients] | patients with mucosal healing ([4]; three biopsied CD patients, all with clinical responses) | sIL-15Rα secretion [1, 10] [pM] | effect on sIL-15Rα secretion by macrophages [1] | median IL-15 levels after IFX ([5]; non-responder patients, serum) | patients in whom IL-15 was undetectable after IFX ([5]; responder patients, 15/35, before IFX 26% (9/35)) [%] | patients in whom IL-15 dropped below the control value ([5]; responder patients, 29/35, after IFX) [%] | non-responder patients in whom TNF remained above the control value ([6]; week 6, 9/10) [%] | responder patients with individual TNFα values dropping to control ranges ([6]; week 6, 20/33) [%] | responder patients in whom TNFα decreased ([6]; week 6, 31/33) [%] | efficacy in CD [7]
CNC(=O)[C@H](Cc1c[nH]c2ccccc12)NC(=O)[C@@H](CC(=O)NO)CC(C)C [GM-6001] | completely inhibited | not modified; also recorded: did not affect | 4.5 ± 3.0 |  |  |  |  |  |  |  |  |  |  |  |  |  | 
IFX: anti-TNFα monoclonal antibody, a mouse-human chimeric whole antibody (Remicade; Centocor) |  |  | 22.4 ± 2.0 | high affinity and specificity | 38 | 10 | 35 | two | 18.0 ± 1.2 | increased significantly; also recorded: induced; also recorded: markedly increased | not modified | 43 | 83 | 90 | 61 | 94 | 
etanercept |  |  |  |  |  |  |  |  | 6.3 ± 0.9 | did not significantly affect; also recorded: did not induce |  |  |  |  |  |  | inefficient in CD; also recorded: poor efficacy
